The results in this text go back to US20230348426A1, “OXOPYRROLIDINE FPR2 AGONISTS” (Bristol-Myers Squibb Company, priority 2020, published 2023).

The target in assay [1] is human FPR1 (Homo sapiens (Human), UniProt P21462). Description: FPR1 cyclic adenosine monophosphate (cAMP) assay. Type of assay: cell-based. Conditions: CHO cells overexpressing human FPR1; forskolin 10 µM; inhibition of cAMP production; read-out: hFPR1 cAMP EC50. The gist of the method:
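Human FPR1-expressing CHO cells were used at 4,000 per well, with compound at 0.020 nM–100 µM in 1% DMSO. Potency came from a 4-parameter logistic fit.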
(In general: Cyclic AMP is a second messenger, typically raised through Gs and lowered through Gi signalling.)

The target in assay [2] is human FPR2 (Homo sapiens (Human), UniProt P25090). Description: FPR2 cyclic adenosine monophosphate (cAMP) assay. Type of assay: cell-based. Conditions: CHO cells overexpressing human FPR2; forskolin 5 µM; inhibition of cAMP production; read-out: hFPR2 cAMP2 EC50. The gist of the method:
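Inhibition of forskolin-driven (5 µM) cAMP, with 200 µM IBMX, measured in human FPR2-expressing CHO cells, 2,000 per well, 30 min at room temperature; compounds tested 0.020 nM to 100 µM in 1% DMSO. HTRF 665/590 ratio converted to cAMP via calibration curve, then 4-parameter fit.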

In general, EC50 refers to the concentration giving half of the maximal effect.

Sequence of human FPR2 (P25090 whole entry): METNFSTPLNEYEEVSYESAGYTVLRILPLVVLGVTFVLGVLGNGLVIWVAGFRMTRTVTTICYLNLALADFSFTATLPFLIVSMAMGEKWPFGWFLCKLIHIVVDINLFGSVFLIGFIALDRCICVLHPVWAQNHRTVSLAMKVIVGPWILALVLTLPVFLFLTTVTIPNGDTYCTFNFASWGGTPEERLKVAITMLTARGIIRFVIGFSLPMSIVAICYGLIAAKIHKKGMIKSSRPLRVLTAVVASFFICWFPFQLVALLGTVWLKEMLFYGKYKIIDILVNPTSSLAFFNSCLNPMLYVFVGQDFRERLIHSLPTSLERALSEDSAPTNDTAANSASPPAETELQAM
Sequence of human FPR1 (P21462 whole entry): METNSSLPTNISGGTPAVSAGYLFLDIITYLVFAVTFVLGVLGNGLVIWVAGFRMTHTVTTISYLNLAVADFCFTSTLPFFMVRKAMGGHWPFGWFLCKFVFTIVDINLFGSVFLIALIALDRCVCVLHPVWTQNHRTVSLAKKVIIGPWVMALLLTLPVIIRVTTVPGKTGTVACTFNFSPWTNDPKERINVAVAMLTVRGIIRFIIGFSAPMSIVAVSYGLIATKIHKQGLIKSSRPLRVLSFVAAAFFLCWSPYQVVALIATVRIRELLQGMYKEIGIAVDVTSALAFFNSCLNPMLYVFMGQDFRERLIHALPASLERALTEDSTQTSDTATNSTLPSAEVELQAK

As for `COc1cc(F)c([C@@H]2CN(c3nc(N4C[C@@H](C)N(C)[C@@H](C)C4)ccc3C#N)C(=O)[C@H]2NC(=O)c2ccc(OC(F)F)cc2)c(F)c1` [Example 332], the concentration for a half-maximal effect (EC50) in assay [1] worked out at 5800 nM; in assay [2], 13 nM.

As for `COc1cc(F)c([C@@H]2CN(c3nc(N4CCN(C)CC4)ccc3C(F)F)C(=O)[C@H]2NC(=O)c2ccc(Cl)cc2)c(F)c1` [Example 333], the EC50 in assay [1] amounted to 5700 nM; in assay [2], 14 nM.

Take `COc1cc(F)c([C@@H]2CN(c3nccc(N4C[C@@H]5C[C@H]4CN5C)c3C(F)(F)F)C(=O)[C@H]2NC(=O)c2ccc(Cl)cc2)c(F)c1` [Example 334]: the 50% effective concentration (EC50) in assay [1] stood at 480 nM; in assay [2], 14 nM.

As to `COc1cc(F)c([C@@H]2CN(C3CCC3)C(=O)[C@H]2NC(=O)c2ccc(OC(F)(F)F)cc2)c(F)c1` [Example 335], the EC50 in assay [1] was 450 nM; in assay [2], 15 nM.

For the molecule `COCCn1c(C)ccc(N2C[C@@H](c3c(F)cc(OC)cc3F)[C@H](NC(=O)c3ccc(OC(F)F)cc3)C2=O)c1=O` [Example 336], the values for the EC50 in assay [1] and in assay [2] were 60 nM and 17 nM, respectively.

With `COc1cc(F)c([C@@H]2CN(c3c(C(F)(F)F)ccn(C)c3=O)C(=O)[C@H]2NC(=O)c2ccc(Cl)cc2)c(F)c1` [Example 337], the EC50 amounted to 4300 nM in assay [1] and 17 nM in assay [2].

Take `COCCn1ccc(C)c(N2C[C@@H](c3ccc(Cl)cc3)[C@H](NC(=O)c3ccc(OC(F)(F)F)cc3)C2=O)c1=O` [Example 339]: the EC50 in assay [1] was found to be 0.6 nM; in assay [2], 23 nM.

In the case of `COCCn1ccc(C)c(N2C[C@@H](c3ccc(Cl)cc3)[C@H](NC(=O)c3ccc(OC(F)F)cc3)C2=O)c1=O` [Example 340], the EC50 came to 1.1 nM in assay [1] and 23 nM in assay [2].

For `COc1cc(F)c([C@@H]2CN(c3c(F)cccc3C#N)C(=O)[C@H]2NC(=O)c2ccc(Cl)cc2)c(F)c1` [Example 341], the concentration giving a half-maximal response (EC50) in assay [1] was 4100 nM; in assay [2], 23 nM.

In the case of `COCCn1cccc(N2C[C@@H](c3c(F)cc(OC)cc3F)[C@H](NC(=O)c3ccc(OC)cc3)C2=O)c1=O` [Example 342], the EC50 in assay [1] is 830 nM; in assay [2], 32 nM.

As to `COc1cc(F)c([C@@H]2CN(c3nc(C4CCOCC4)ccc3N(C)C)C(=O)[C@H]2NC(=O)c2ccc(OC(F)F)cc2)c(F)c1` [Example 343], the EC50 in assay [1] amounted to 120 nM; in assay [2] it was 33 nM.

As for `COc1cc(F)c([C@@H]2CN(c3ncccc3C(F)(F)F)C(=O)[C@H]2NC(=O)c2ccc(Cl)nc2)c(F)c1` [Example 344], the figures for the EC50 in assay [1] and in assay [2] were 2000 nM and 46 nM, respectively.

On to `CCn1cccc(N2C[C@@H](c3c(F)cc(OC)cc3F)[C@H](NC(=O)c3cccc(OC)c3)C2=O)c1=O` [Example 345], for which the EC50 amounted to 3.1 nM in assay [1] and 89 nM in assay [2].

Turning to `COc1cc(F)c([C@@H]2CN(c3cncnc3O)C(=O)[C@H]2NC(=O)c2ccc(OC(F)F)cc2)c(F)c1` [Example 346], the EC50 is 1900 nM in assay [1] and 97 nM in assay [2].

In the case of `COCCn1cccc(N2C[C@@H](c3c(F)cc(OC)cc3F)[C@H](NC(=O)c3ccc(OC(C)C)cc3)C2=O)c1=O` [Example 347], the EC50 in assay [1] turned out to be 840 nM; in assay [2] it was 110 nM.

For `COc1cc(F)c([C@@H]2CN(c3nc(N4C[C@@H](C)N(C)[C@@H](C)C4)ccc3C3CC3)C(=O)[C@H]2NC(=O)c2ccc(OC(F)F)cc2)c(F)c1` [Example 348], the concentration giving a half-maximal response (EC50) in assay [1] worked out at 1400 nM; in assay [2], 111 nM.

For the molecule `COc1cc(F)c([C@@H]2CN(c3ncccc3C(F)(F)F)C(=O)[C@H]2NC(=O)C2CCc3cc(OC)ccc3C2)c(F)c1` (stereo partly shown) [Example 349], the concentration giving a half-maximal response (EC50) turned out to be 5500 nM in assay [1] and 570 nM in assay [2].

Regarding `COc1cc(F)c([C@@H]2CN(c3c(C)ccn(C4CCOC4)c3=O)C(=O)[C@H]2NC(=O)c2ccc(OC(F)(F)F)cc2)c(F)c1` (stereo partly shown) [Example 350], the figures for the concentration giving a half-maximal response (EC50) in assay [1] and in assay [2] were 0.6 nM and 0.9 nM, respectively.

Regarding `COc1cc(F)c([C@@H]2CN(c3c(C)ccn(C4CC4)c3=O)C(=O)[C@H]2NC(=O)c2ccc(OC(F)F)cc2)c(F)c1` [Example 351], the EC50 in assay [1] came to 5 nM; in assay [2] it was 8 nM.

`COc1cc(F)c([C@@H]2CN(c3c(C)ccn(C4CC4)c3=O)C(=O)[C@H]2NC(=O)c2ccc(OC(F)(F)F)cc2)c(F)c1` [Example 352]: the half-maximal effective concentration (EC50) in assay [1] is 3 nM; in assay [2], 4.8 nM.

Regarding `COCCN1CCC(N2C[C@@H](c3c(F)cc(OC)cc3F)[C@H](NC(=O)c3ccc(OC(F)(F)F)cc3)C2=O)C1=O` (stereo partly shown) [Example 353], the EC50 came to 17 nM in assay [1] and 4.2 nM in assay [2].

On to `COc1ccc([C@@H]2CN(c3cccn(CC(O)C(F)(F)F)c3=O)C(=O)[C@H]2NC(=O)c2ccc(OC(F)(F)F)cc2)cc1` (stereo partly shown) [Example 354], for which the EC50 in assay [1] was determined as 7 nM; in assay [2] it was 3.2 nM.

As to `O=C(N[C@@H]1C(=O)N(c2cccn(CC(O)C(F)(F)F)c2=O)C[C@H]1c1ccc(Cl)cc1)c1ccc(OC(F)(F)F)cc1` (stereo partly shown) [Example 355], the results for the EC50 in assay [1] and in assay [2] were 4 nM and 4.5 nM, respectively.

Consider `COc1cc(F)c([C@@H]2CN(c3ccnn(CCO)c3=O)C(=O)[C@H]2NC(=O)c2ccc(OC(F)(F)F)cc2)c(F)c1` [Example 356], for which the EC50 in assay [1] turned out to be 31 nM; in assay [2] it was 3.5 nM.

For the molecule `CCn1nccc(N2C[C@@H](c3c(F)cc(OC)cc3F)[C@H](NC(=O)c3ccc(OC(F)(F)F)cc3)C2=O)c1=O` [Example 357], the EC50 is 12 nM in assay [1] and 3.1 nM in assay [2].

Consider `CCn1nccc(N2C[C@@H](c3c(F)cc(OC)cc3F)[C@H](NC(=O)c3ccc(OC(F)F)cc3)C2=O)c1=O` [Example 358], for which the EC50 in assay [1] stood at 14 nM; in assay [2] it was 2 nM.

Regarding `COc1cc(F)c([C@@H]2CN(c3c(C)ccn(CC(C)O)c3=O)C(=O)[C@H]2NC(=O)c2ccc(OC(F)(F)F)cc2)c(F)c1` (stereo partly shown) [Example 359], the half-maximal effective concentration (EC50) in assay [1] came to 6 nM; in assay [2] it was 4.5 nM.

Take `COc1cc(F)c([C@@H]2CN(c3c(C)ccn(CC(C)O)c3=O)C(=O)[C@H]2NC(=O)c2ccc(OC(F)F)cc2)c(F)c1` (stereo partly shown) [Example 360]: the EC50 in assay [1] stood at 18 nM; in assay [2], 3.2 nM.

Consider `COc1cc(F)c([C@@H]2CN(c3c(C)ccn(CC(C)O)c3=O)C(=O)[C@H]2NC(=O)c2ccc(OC(F)(F)F)cc2)c(F)c1` (stereo partly shown) [Example 361], for which the EC50 amounted to 3 nM in assay [1] and 1.7 nM in assay [2].

Turning to `COc1cc(F)c([C@@H]2CN(c3c(C)ccn(CC(C)O)c3=O)C(=O)[C@H]2NC(=O)c2ccc(Cl)cc2)c(F)c1` (stereo partly shown) [Example 362], the results for the EC50 in assay [1] and in assay [2] were 12 nM and 0.1 nM, respectively.

Turning to `COCC(C(=O)N1C[C@@H]2C[C@H]1CO2)n1cccc(N2C[C@@H](c3c(F)cc(OC)cc3F)[C@H](NC(=O)c3ccc(OC(F)(F)F)cc3)C2=O)c1=O` (stereo partly shown) [Example 363], the values for the EC50 in assay [1] and in assay [2] were 3 nM and 0.8 nM, respectively.

`COc1ccc([C@@H]2CN(c3cccn(CC(OC)C(F)(F)F)c3=O)C(=O)[C@H]2NC(=O)c2ccc(OC(F)(F)F)cc2)c(F)c1` (stereo partly shown) [Example 364]: the figures for the EC50 in assay [1] and in assay [2] were 1 nM and 2.3 nM, respectively.

Turning to `COCCn1ccc(C)c(N2C[C@@H](c3ccc(OC)cc3)[C@H](NC(=O)c3ccc(Cl)cc3)C2=O)c1=O` [Example 365], the EC50 in assay [1] stood at 1 nM; in assay [2] it was 2.6 nM.

Turning to `COc1ccc([C@@H]2CN(c3c(C)ccn(CC(F)F)c3=O)C(=O)[C@H]2NC(=O)c2ccc(Cl)cc2)cc1` [Example 366], the EC50 in assay [1] and in assay [2] was 3 nM throughout.

With `COc1ccc([C@@H]2CN(c3c(C)ccn(CCO)c3=O)C(=O)[C@H]2NC(=O)c2ccc(OC(F)F)cc2)c(F)c1` [Example 367], the half-maximal effective concentration (EC50) is 3 nM in assay [1] and 1.2 nM in assay [2].

On to `O=C(N[C@@H]1C(=O)N(c2cccn(CC(O)C(F)(F)F)c2=O)C[C@H]1c1ccc(Cl)cc1)c1ccc(OC(F)F)cc1` (stereo partly shown) [Example 368], for which the EC50 in assay [1] was found to be 86 nM; in assay [2], 1.7 nM.

On to `CCn1cncc(N2C[C@@H](c3c(F)cc(OC)cc3F)[C@H](NC(=O)c3ccc(OC(F)F)cc3)C2=O)c1=O` [Example 369], for which the EC50 in assay [1] is 1100 nM; in assay [2], 3.7 nM.

With `COCCn1cncc(N2C[C@@H](c3c(F)cc(OC)cc3F)[C@H](NC(=O)c3ccc(OC(F)F)cc3)C2=O)c1=O` [Example 370], the EC50 in assay [1] was found to be 1400 nM; in assay [2], 3.7 nM.

Turning to `COc1ccc([C@@H]2CN(c3cccn(CC(O)C(F)(F)F)c3=O)C(=O)[C@H]2NC(=O)c2ccc(OC(F)F)cc2)cc1` (stereo partly shown) [Example 371], the EC50 stood at 8 nM in assay [1] and 1.9 nM in assay [2].

As to `CCN1CCC(N2C[C@@H](c3c(F)cc(OC)cc3F)[C@H](NC(=O)c3ccc(OC(F)(F)F)cc3)C2=O)C1=O` (stereo partly shown) [Example 372], the EC50 was found to be 17 nM in assay [1] and 2.8 nM in assay [2].

As for `CCn1ccc(F)c(N2C[C@@H](c3c(F)cc(OC)cc3F)[C@H](NC(=O)c3ccc(OC(F)F)cc3)C2=O)c1=O` [Example 373], the concentration for a half-maximal effect (EC50) was 233 nM in assay [1] and 12.5 nM in assay [2].

`COc1ccc([C@@H]2CN(c3c(C)ccn(CCO)c3=O)C(=O)[C@H]2NC(=O)c2ccc(OC(F)(F)F)cc2)c(F)c1` [Example 375]: the values for the EC50 in assay [1] and in assay [2] were 3 nM and 1.6 nM, respectively.

As for `COc1ccc([C@@H]2CN(c3c(C)ccn(CC(F)F)c3=O)C(=O)[C@H]2NC(=O)c2ccc(OC(F)F)cc2)c(F)c1` [Example 376], the EC50 turned out to be 4 nM in assay [1] and 0.4 nM in assay [2].

For the molecule `COc1ccc([C@@H]2CN(c3c(C)ccn(CC(F)F)c3=O)C(=O)[C@H]2NC(=O)c2ccc(Cl)cc2)c(F)c1` [Example 377], the concentration for a half-maximal effect (EC50) in assay [1] is 5 nM; in assay [2], 1.6 nM.
